Results on 14 compounds are retold here after US20050222147A1, “Process for the preparation of morpholine derivatives and intermediates therefore” (priority 2000, published 2005).

The target of one experiment is eosinophil chemotaxis. The experiment can be described thus: Eosinophil chemotaxis assay (eotaxin-induced). The format is cell-based, human. The conditions noted are these: functional pKi (fpKi). Here is the method: (b) Eosinophil Chemotaxis Assay.
Compounds were evaluated for their inhibitory effect on eosinophil chemotaxis. Eosinophils were purified from human peripheral blood by standard CD16 cell depletion using a Miltenyi cell separation column and a magnetic Super Macs magnet as previously described (Motegi & Kita, 1998; J. Immunology. 161:4340-6). Cells were re-suspended in RPMI 1640/10% FCS solution and incubated with calcein-AM (Molecular Probes) at 37° C. for 30 mins. Following incubation, the eosinophils were centrifuged at 400 g for 5 min and re-suspended in RPMI/FCS at 2.2 million/ml. Cells. were then incubated in the presence of increasing concentration of compounds (1 pM to 30 μM) at 37° C. for 30 mins. For control responses cells were incubated with RPMI/FCS only. The agonist eotaxin (either a concentration response curve or for the functional inhibition curves an EC80 concentration) was added to the lower chamber of a 96 well chemotaxis plate (5 μm filter: Receptor Technologies). Eosinophils (50 μl of 2 million/ml cells) were added to the top chamber of the filter plate and incubated at 37° C. for 45 mins. Cells remaining on top of the chemotaxis filter were removed and the number of eosinophils which had migrated were quantified by reading the plate on a fluorescent plate reader. Inhibition curves for the effect of compounds on eosinophil chemotaxis were analysed by fitting the data with a four parameter logistic equation. Functional pK1 values (fpK1) were generated using the equation below (Lazareno & Birdsall, 1995. Br. J. Pharmacol 109: 1110-9). [formula] (c) Guinea-pig Ovalbumin Model

The next experiment has as its target T1, CCR-3 (Homo sapiens, UniProt P51677).
T1 construct: expressed in transfected cells
T1 sequence (P51677 1-355): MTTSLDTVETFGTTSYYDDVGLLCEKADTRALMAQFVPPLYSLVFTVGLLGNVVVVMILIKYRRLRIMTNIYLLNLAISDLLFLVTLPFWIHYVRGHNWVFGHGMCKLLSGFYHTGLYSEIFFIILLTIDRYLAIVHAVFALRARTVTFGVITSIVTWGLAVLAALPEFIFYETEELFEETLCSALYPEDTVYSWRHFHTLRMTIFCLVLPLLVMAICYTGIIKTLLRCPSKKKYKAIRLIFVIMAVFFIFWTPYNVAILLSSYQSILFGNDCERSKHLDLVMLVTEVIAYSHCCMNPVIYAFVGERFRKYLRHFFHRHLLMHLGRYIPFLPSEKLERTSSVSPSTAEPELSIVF
The experiment can be described thus: CCR-3 competition binding SPA (scintillation proximity assay). As to conditions: read-out: CCR-3 Binding Assay (pIC50) (converted). The method, then:
A CCR-3 competition binding SPA (scintillation proximity assay) was used to assess the affinity of novel compounds for CCR-3. Membranes prepared from K562 cells stably expressing CCR-3 (2.51 μg/well) were mixed with 0.25 mg/well wheat-germ agglutinin SPA beads (Amersham) and incubated in binding buffer (HEPES 50 mM, CaCl2 1 mM, MgCl2 5 mM, 0.5% BSA) at 4° C. for 1.5 hr. Following incubation, 20 pM of [^125I) eotaxin (Amersham) and increasing concentrations of compound (1 pM to 30 μM) were added and incubated in a 96 well plate for 2 hr at 22° C. then counted on a Microbeta plate counter. The total assay volume was 100 μl. Competition binding data were analysed by fitting the data with a four parameter logistic equation. Data are presented as the mean pIC50 values (negative logarithm of the concentration of compound which inhibits [^125I] eotaxin binding by 50%) from at least two experiments.
For orientation: Scintillation proximity formats need no separation of bound from free tracer.

With `C[C@H]1CO[C@H](CNC(=O)Cc2ccc(Cl)cc2)CN1Cc1ccc(Cl)c(Cl)c1` (relative stereo) [Example 27, 2-(4-Chlorophenyl)-N-{[(trans)-4-(3,4-dichlorobenzyl)-5-methylmorpholin-2-yl]methyl}acetamide], the “CCR-3 Eosinophil Chemotaxis Assay (fpKi)” value on eosinophil chemotaxis is recorded as 7.39.

As to `CS(=O)(=O)c1ccc(CC(=O)NC[C@H]2CN(Cc3ccc(Cl)c(Cl)c3)CCO2)cc1` (single isomer, unassigned) [Example 39], at eosinophil chemotaxis, the “CCR-3 Eosinophil Chemotaxis Assay (fpKi)” value is listed as 8.31. Still for that read-out and setting: the result for `CS(=O)(=O)c1ccc(CC(=O)NCC2CN(Cc3ccc(Cl)c(Cl)c3)CCO2)cc1.O=CO` (stereo not shown) [Example 2, N-{[4-(3,4-Dichlorobenzyl)morpholin-2-yl]methyl}-2-[4-(methylsulfonyl)phenyl]acetamide salt with formic acid (1:1)] reads 6.51; that for `O=C(Cc1cccc(F)c1)NCC1CN(Cc2ccc(Cl)c(Cl)c2)CCO1` (stereo not shown) [Example 3, N-{[4-(3,4-Dichlorobenzyl)morpholin-2-yl]methyl}-2-(3-fluorophenyl)acetamide], 7.15; that for `CN(C)c1ccc(CC(=O)NCC2CN(Cc3ccc(Cl)c(Cl)c3)CCO2)cc1.O=CO` (stereo not shown) [Example 12, N-{[4-(3,4-Dichlorobenzyl)morpholin-2-yl]methyl}-2-[4-(dimethylamino)phenyl]acetamide salt with formic acid (1:1)], 6.82. As for `O=C(Cc1cc(C(F)(F)F)cc(C(F)(F)F)c1)NCC1CN(Cc2ccc(Cl)c(Cl)c2)CCO1` (stereo not shown) [Example 17, 2-[3,5-Bis(trifluoromethyl)phenyl]-N-{[4-(3,4-dichlorobenzyl)morpholin-2-yl]methyl}acetamide], the “CCR-3 Eosinophil Chemotaxis Assay (fpKi)” value on eosinophil chemotaxis is 6.24.

With `O=C(Cc1ccsc1)NCC1CN(Cc2ccc(Cl)c(Cl)c2)CCO1` (stereo not shown) [Example 32, N-{[4-(3,4-Dichlorobenzyl)morpholin-2-yl]methyl}-2-thien-3-ylacetamide], the “CCR-3 Eosinophil Chemotaxis Assay (fpKi)” value on eosinophil chemotaxis was 7.32. For `O=C(Cc1csc(-c2cnccn2)n1)NCC1CN(Cc2ccc(Cl)c(Cl)c2)CCO1` (stereo not shown) [Example 37, N-{[4-(3,4-Dichlorobenzyl)morpholin-2-yl]methyl}-2-(2-pyrazin-2-yl-1,3-thiazol-4-yi)acetamide], the “CCR-3 Eosinophil Chemotaxis Assay (fpKi)” value at eosinophil chemotaxis is on record as 7.97. The same measure, in the same setting: the result for `Cc1oc(-c2ccc(F)cc2)nc1CC(=O)NCC1CN(Cc2ccc(Cl)c(Cl)c2)CCO1` (stereo not shown) [Example 41, N-{[4-(3,4-Dichlorobenzyl)morpholin-2-yl]methyl}-2-[2-(4-fluorophenyl)-5-methyl-1,3-oxazol-4-yl]acetamide] reads 7.99; that for `O=C(Cc1csc(-c2cnccn2)n1)NC[C@H]1CN(Cc2ccc(Cl)c(Cl)c2)CCO1` [Example 42, N-([(2S)-4-(3,4-Dichlorobenzyl)morpholin-2-yl]methyl}-2-(2-pyrazin-2-yl-1,3-thiazol-4-yl)acetamide], 9.32. Same read-out and setting: the result for `CS(=O)(=O)Nc1cccc(CC(=O)NC[C@H]2CN(Cc3ccc(Cl)s3)CCO2)c1` [Example 49, N-({(2S)-4-[(5-Chlorothien-2-yl)methyl]morpholin-2-yl}methyl)-2-{3-[(methylsulfonyl)amino]phenyl]acetamide] reads 8.07. Turning to `Cc1oc(-c2ccccc2)nc1CC(=O)NC[C@H]1CN(Cc2ccc(Cl)c(Cl)c2)CCO1` [Example 54, N-{[(2S)-4-(3,4-Dichlorobenzyl)morpholin-2-yl]methyl}-2-(5-methyl-2-phenyl-1,3-oxazol-4-yl)acetamide], the IC50 on CCR-3 was 24 nM. Further, the “CCR-3 Eosinophil Chemotaxis Assay (fpKi)” value at eosinophil chemotaxis worked out at 7.96. For `Cc1oc(-c2ccccc2)nc1CC(=O)NC[C@@H]1CN(Cc2ccc(Cl)c(Cl)c2)CCO1` [Example 55, N-{[(2R)-4-(3,4-Dichlorobenzyl)morpholin-2-yl]methyl}-2-(5-methyl-2-phenyl-1,3-oxazol-4-yl)acetamide], the IC50 on CCR-3 was 398 nM. For the compound `NS(=O)(=O)c1cccc(CC(=O)NC[C@H]2CN(Cc3ccc(Cl)c(Cl)c3)CCO2)c1` [Example 162], the IC50 on CCR-3 was 12.6 nM. Besides, the “CCR-3 Eosinophil Chemotaxis Assay (fpKi)” value on eosinophil chemotaxis amounted to 8.2.
